{"source": "patent US20190183939A1", "about": "“CELL THERAPY USING MIDBRAIN-TYPE NEURAL STEM CELLS TREATED WITH VITAMIN C” (INDUSTRY-UNIVERSITY COOPERATION FOUNDATION HANYANG …, priority 2017, published 2019)", "key": {"TET": {"system": "TET", "test": "Tet enzyme activity in nuclear fraction", "format": "biochemical, rat", "details": "VC 200 μM, 4 days of proliferation, D0", "protocol": "TET and JMJD3 activities were measured using Epigenase™ 5mC hydroxylase TET Activity/Inhibition Assay Kit and Epigenase™ JMJD3/UTX Demethylase Activity/Inhibition Assay Kit (Epigentek, Farmingdale, N.Y.), respectively. Briefly, cells from two 10 cm-dishes were harvested after 4 days of proliferation with or without VC (200 μM) treatment. Nuclear fractions were obtained from the cells using the EpiQuik nuclear extraction kit (Epigentek), and subjected to enzyme activity analyses."}, "[1]": {"system": "global 5hmC/5mC and H3K27m3/H3K9m3 levels in VM-NSCs", "test": "Global epigenetic code determination (dot blot, western blot, immunocytochemistry)", "format": "cell-based, rat", "protocol": "(§1) Cultured cells and cryosectioned brain slices were fixed with 4% paraformaldehyde (PFA), and blocked for 40 minutes in blocking solution (Blocking solution: 1% BSA+0.3% Triton X-100). For 5hmC and 5mC staining, the fixed cells were incubated with 2 N HCl for 20 minutes before the blocking reaction. The samples were incubated overnight at 4° C. in the blocking solution containing the primary antibodies listed in Supplemental Table 1. Secondary antibodies tagged with Alexa 488 (1:200, Invitrogen, Carlsbad, Calif.) and Cy3 (1:200, Jackson Immunoresearch Laboratories, West Grove, Pa.) were applied. Stained samples were mounted in Vectashield medium containing 40,6-diamidino-2-phenylindole (DAPI; Vector Laboratories, West Grove, Pa.) and analysed under an epifluorescence (Leica, Wetzlar, Germany) or confocal microscope (Leica TSP SP5).\nDNA dot blot analysis for 5hmC/5mC was performed as described in the following reference. [He, X. B., Kim, M., Kim, S. Y., Yi, S. H., Rhee, Y. H., Kim, T., Lee, E. H., Park, C. H., Dixit, S., Harrison, F. E., et al. (2015). Vitamin C facilitates dopamine neuron differentiation in fetal midbrain through TET1- and JMJD3-dependent epigenetic control manner. Stem Cells 33, 1320-1332]. Briefly, genomic DNA was extracted and quantified. Genomic DNA (80 ng) was spotted on nitrocellulose membranes, air dried, and exposed in UV for 20 minutes. After blocking with 5% bovine serum albumin (BSA)/Tris-buffered saline-Tween 20 at room temperature for 2 hours, the membrane was incubated in anti-5hmC (Active Motif, Carlsbad, Calif.) and anti-5mC (Abcam, Cambridge, UK) antibodies at 4° C. overnight. Western-blots for determining global histone modification changes were performed as described in the following reference. [Rumbaugh, G., and Miller, C. A. (2011). Epigenetic changes in the brain: measuring global histone modifications. Methods Mol Biol 670, 263-274]. […] Positive bands were detected and captured by ChemiDoc (Bio-Rad, Hercules, Calif.), and the intensities of the bands were quantified using ImageJ software (http://imagej.nih.gov/ij)."}, "[2]": {"system": "cultures differentiated from VM-NSCs", "test": "Differentiated cell survival/death, DNA damage and resistance against toxins", "format": "cell-based, rat", "protocol": "(§2) The cell growth profile during NSC expansion with several cell passages was generated by counting the number of viable cells at the end of each passage. Cell expansion of each NSC passage was further estimated by the population doubling level (PDL, the level at which the number of cells is doubled), which was determined by log(N/NO)/log 2 (where N is the number of cells at the end of each passage; NO is the number of cells plated initially (1×10^5 cells/cm^2)). DA neuronal cell survival in the absence or presence of toxic insults (500-1000 uM of H2O2 or 6-OHDA) was determined by counting viable TH^+ cells after staining. General cell death and DNA damage were estimated by ethidium heterodimer 1 (EthD1) (Molecular Probes) and γH2AX staining, respectively."}, "VM-NSCs": {"system": "VM-NSCs", "test": "Cell growth curves and population doubling level during NSC expansion", "format": "cell-based, rat", "details": "up to P1", "protocol": "as §2"}, "[3]": {"system": "Foxa2 and Lmx1a promoters", "test": "DIP-qPCR and ChIP-qPCR on Foxa2 and Lmx1a promoters", "format": "cell-based, rat", "excerpt": "(§3) Foxa2 and Nurr1 binding sites were identified using the Jaspar database (http://jaspar.genereg.net/) using an 80% score threshold. Predicted Foxa2 and Nurr1 binding sites were coupled with phylogenetic footprinting to eliminate spurious predictions with specified position weight matrix (PWM) settings, as described in the following reference. [Sandelin, A., and Wasserman, W. W. (2004). Constrained binding site diversity within families of transcription factors enhances pattern discovery bioinformatics. Journal of molecular biology 338, 207-215] (Table 2). ChIP and DIP assays were carried out as described in the following reference. [Prolonged membrane depolarization enhances midbrain dopamine neuron differentiation via epigenetic histone modifications. Stem Cells 29, 1861-1873]. Briefly, chromatin or genomic DNA was sheared to an average of 200-500 bp in length using a sonication Bioruptor (BMS, Seoul, Korea) and immunoprecipitated using the antibodies listed in Table 1. Immunoprecipitated DNA fragments were collected using magnetic beads (Invitrogen), purified, and subjected to real-time PCR using the primers listed in Table 3. The comparative cycle threshold method was used to quantify the results. Data were normalized to the input DNA."}, "[4]": {"system": "TH+ DA neurons differentiated from VM-NSCs", "test": "Co-expression of midbrain-specific markers in differentiated TH+ DA neurons", "format": "cell-based, rat", "details": "P1 cultures treated with VC during expansion, D6", "protocol": "as §1\nImmunostained cells were counted in 10-20 random areas of each culture coverslip using an eyepiece grid at a magnification of 200×. Data are expressed as the mean±SEM of three to eight independent cultures. For every figure, statistical tests are justified as appropriate. Statistical comparisons were made using Student's t-test (unpaired) or one-way ANOVA followed by Tukey's post hoc analysis using SPSS® Statistics 21; IBM Inc. The relevant n, P-values, and statistical analysis methods are indicated in each figure legend."}, "[5]": {"system": "GAD67, TPH2 and GFAP promoters", "test": "DIP-qPCR and ChIP-qPCR on GAD67, TPH2 and GFAP promoters", "format": "cell-based, rat", "details": "VC administration to proliferating VM-NSCs", "excerpt": "as §3"}}}
{"compound": "O=C1O[C@H]([C@@H](O)CO)C(O)=C1O", "note": "[VC, L-ascorbic acid]", "values": [{"measurement": "Tet enzyme activity in nuclear fractions", "setting": "TET", "value": "greatly enhanced"}, {"measurement": "global 5mC levels", "setting": "[1]; D0", "value": "significant decrease"}, {"measurement": "global levels of H3K27m3 and H3K9m3", "setting": "[1]; D0", "value": "reduced"}, {"measurement": "global 5hmC levels", "setting": "[1]; D0, immunoblotting and immunocytochemical analyses", "value": "greatly increased"}, {"measurement": "DA neurons died after exposure to H2O2 or 6-OHDA", "setting": "[2]; 500 and 1000 μM for 8 hours at D8, VC during expansion", "value": "remarkably lower proportions"}, {"measurement": "γH2AX foci, % cells with >3 foci", "setting": "[2]; D12 as printed, VC during expansion", "value": 24.3, "unit": "%"}, {"measurement": "cell death (EthD-1+ dead cell counting)", "setting": "[2]; differentiation D8, VC during NSC expansion and passaging", "value": "considerably reduced"}, {"measurement": "VM-NSC survival and proliferation", "setting": "VM-NSCs", "value": "none of the anti-oxidant treatments tested, including VC, significantly altered"}, {"measurement": "binding of Tet1, Jmjd3 and Jmjd2 proteins to Foxa2 and Lmx1a promoter regions", "setting": "[3]; ChIP-qPCR, D0", "value": "increased binding"}, {"measurement": "5mC levels in Foxa2 promoter regions", "setting": "[3]; MeDIP-qPCR, VC-treated NSCs", "value": "reduced"}, {"measurement": "5hmC in Foxa2 promoter regions", "setting": "[3]; hMeDIP-qPCR, VC-treated NSCs", "value": "more abundant"}, {"measurement": "TH+ DA neurons expressing Foxa2", "setting": "[4]", "value": 98, "unit": "%"}, {"measurement": "TH+ DA neurons expressing Lmx1a", "setting": "[4]", "value": 91, "unit": "%"}, {"measurement": "TH+ DA neurons expressing Nurr1", "setting": "[4]", "value": 93, "unit": "%"}, {"measurement": "epigenetic codes on TPH2 and GAD67 genes", "setting": "[5]", "value": "did not affect"}]}
